Measurements reported in patent publication US20090148398A1, “Naturally Occurring Volatile Attractant” (priority 2007, published 2009).
“Also recorded” adds a separate entry of the source.

Assays:
fire ant workers = test: Fire ant alarm response; set-up: species or system Solenopsis invicta; conditions: in vivo
Description: Recently, the identity of a component of the fire ant alarm pheromone was determined to be 2-ethyl, 3,6-dimethyl pyrazine and the origin is the mandibular gland. […] In addition, 2-ethyl, 3,6-dimethyl pyrazine is commercially available as a mixture with the related compound, 2-ethyl, 3,5-dimethyl pyrazine.

S. invicta workers = test: Y-tube olfactometer attraction bioassay; set-up: species or system Solenopsis invicta; conditions: in vivo
Excerpt: All ants used in these experiments were obtained from mature, queenright, monogyne Solenopsis invicta colonies excavated from a known monogyne site in Gainesville, Fla. The colonies were separated from the dirt and set up in the laboratory at least one month prior to the experiments. Laboratory colonies were maintained on a diet of crickets, water and 10% sucrose, and kept in plastic trays (83×53×13 cm) whose inner sides were painted with poly tetrafluoroethylene compositions (ADI Fluon, ICI Americas, Bayonne, NF) to prevent, escape of the ants. Based on the above, the attraction of S. invicta workers to various concentrations of the commercially available mixture of 2-ethyl, 3,5-dimethyl pyrazine and 2-ethyl, 3,6-dimethyl pyrazine was evaluated using a Y-tube olfactometer (FIG. 5). The olfactometer is composed of two 24/40 ground glass joints 14 each ring sealed to one of the arms 24 of an approximately 5 cm Y-tube 26 such that about 1 cm of each Y-tube extends through the male half of one of the ground glass joints. An approximately 5 cm piece of about 0.6 cm tubing is ring sealed about 1 cm into the female half of the ground glass joints. […] The number of ants entering the chamber with either the control or the treatment during the 3 min were counted and recorded. […]

Row | Structure (SMILES) | alarm response of fire ant workers (fire ant workers) | attraction of fire ant workers (conclusion of olfactometer experiment) (S. invicta workers)
1 | CCc1ncc(C)nc1C [2-ethyl, 3,5-dimethyl pyrazine] | elicit an alarm response | –
2 | CCc1nc(C)cnc1C [2-ethyl, 3,6-dimethyl pyrazine] | elicited the full range of previously reported fire ant alarm behaviors; also recorded: fire ant workers responded better | attracts fire ant workers through space
